The source made the active and inactive calls. No cut-off for these calls is given here.
Experiments:
[1] = target: T1, N-arachidonyl glycine receptor (Homo sapiens, UniProt Q14330); assay: Agonist activity at human GPR18 expressed in CHO cells assessed as induction of beta-arrestin recruitment by beta-galactosidase enzyme fragment complementation method; format: cell-based
T1 sequence (Q14330 whole entry): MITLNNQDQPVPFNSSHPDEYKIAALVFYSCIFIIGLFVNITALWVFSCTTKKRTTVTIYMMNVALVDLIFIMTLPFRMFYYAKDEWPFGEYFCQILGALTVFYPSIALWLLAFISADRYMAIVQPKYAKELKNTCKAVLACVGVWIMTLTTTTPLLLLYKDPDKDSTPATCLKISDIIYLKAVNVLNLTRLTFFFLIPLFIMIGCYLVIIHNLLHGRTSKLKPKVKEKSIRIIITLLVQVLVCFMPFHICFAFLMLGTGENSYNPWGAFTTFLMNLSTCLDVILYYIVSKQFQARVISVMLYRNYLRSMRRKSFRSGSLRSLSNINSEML

[2] = target: T2, G-protein coupled receptor 55 (Homo sapiens, UniProt Q9Y2T6); assay: Agonist activity at human GPR55 expressed in CHO cells assessed as induction of LPI-induced beta-arrestin recruitment by beta-galactosidase enzyme fragment complementation method; format: cell-based
Cannabinoid receptor 1 [3] = target: T3, Cannabinoid receptor 1 (Homo sapiens, UniProt P21554); assay: Agonist activity at human recombinant CB1 receptor expressed in CHO-K1 cell membranes assessed effect on forskolin-induced cAMP accumulation at 10 uM; format: functional, cell-based
Cannabinoid receptor 2 [4] = target: T4, Cannabinoid receptor 2 (Homo sapiens, UniProt P34972); assay: Agonist activity at human recombinant CB2 receptor expressed in CHO-K1 cell membranes assessed effect on forskolin-induced cAMP accumulation at 10 uM; format: functional, cell-based
[5] = target: Cannabinoid receptor 1 (Rattus norvegicus) (UniProt P20272); assay: Displacement of [3H]CP55,940 from CB1 receptor in rat brain cortical membranes at 10 uM; format: cell membranes
[6] = target: T5, N-arachidonyl glycine receptor (Homo sapiens) (UniProt Q14330); assay: Agonist activity at human GPR18 expressed in CHO cells assessed as induction of beta-arrestin recruitment by beta-galactosidase enzyme fragment complementation method relative to delta9-THC; format: cell-based; design: concentration or dose not given beside the values
T5 sequence (whole entry): T1 sequence (Q14330 whole entry)

Cannabinoid receptor 1 [7] = target: T3, Cannabinoid receptor 1; assay: Displacement of [3H]CP55,940 from human recombinant CB1 receptor expressed in CHO-K1 cells; format: cell-based
Cannabinoid receptor 2 [8] = target: T4, Cannabinoid receptor 2; assay: Displacement of [3H]CP55,940 from human recombinant CB2 receptor expressed in HEK293 cells at 10 uM; format: cell-based
[9] = target: T5, N-arachidonyl glycine receptor (Homo sapiens); assay: Antagonist activity against human GPR18 expressed in CHO cells assessed as reduction in delta9-THC-induced beta-arrestin recruitment at 10 uM by beta-galactosidase enzyme fragment complementation method; format: cell-based
Cannabinoid receptor 1 [10] = target: T3, Cannabinoid receptor 1; assay: Displacement of [3H]CP55,940 from human recombinant CB1 receptor expressed in CHO-K1 cells at 10 uM; format: cell-based
Cannabinoid receptor 2 [11] = target: T4, Cannabinoid receptor 2; assay: Displacement of [3H]CP55,940 from human recombinant CB2 receptor expressed in HEK293 cells; format: cell-based
[12] = Displacement of [3H]diazepam from GABAA receptor in rat brain cortical membranes; format: cell membranes
[13] = target: T2, G-protein coupled receptor 55; assay: Agonist activity at human GPR55 expressed in CHO cells assessed as induction of LPI-induced beta-arrestin recruitment by beta-galactosidase enzyme fragment complementation method relative to LPI; format: cell-based; design: concentration or dose not given beside the values
[14] = target: T1, N-arachidonyl glycine receptor; assay: Antagonist activity against human GPR18 expressed in CHO cells assessed as reduction in delta9-THC-induced beta-arrestin recruitment by beta-galactosidase enzyme fragment complementation method; format: cell-based
Cannabinoid receptor 1 [15] = target: Cannabinoid receptor 1 (Rattus norvegicus, UniProt P20272); assay: Displacement of [3H]CP55,940 from CB1 receptor in rat brain cortical membranes; format: cell membranes
[16] = target: T2, G-protein coupled receptor 55; assay: Antagonist activity against human GPR55 expressed in CHO cells assessed as reduction in LPI-induced beta-arrestin recruitment by beta-galactosidase enzyme fragment complementation method; format: cell-based
Rattus norvegicus = species on record: Rattus norvegicus; assay: Displacement of [3H]diazepam from GABAA receptor in rat brain cortical membranes at 10 uM; format: cell membranes
[17] = target: T2, G-protein coupled receptor 55; assay: Antagonist activity against human GPR55 expressed in CHO cells assessed as reduction in LPI-induced beta-arrestin recruitment at 10 uM by beta-galactosidase enzyme fragment complementation method; format: cell-based
[18] = target: T6, G-protein coupled receptor 35 (Homo sapiens, UniProt Q9HC97); assay: Antagonist activity at human GPR35 assessed as reduction of zaprinast-induced beta-arrestin recruitment by beta-galactosidase enzyme fragment complementation method
[19] = target: T6, G-protein coupled receptor 35; assay: Antagonist activity at human GPR35 assessed as reduction of zaprinast-induced beta-arrestin recruitment by beta-galactosidase enzyme fragment complementation method relative to untreated control; design: concentration or dose not given beside the values; settings: concentration not given here
[20] = target: T6, G-protein coupled receptor 35; assay: Agonist activity at human GPR35 assessed as induction of beta-arrestin recruitment by beta-galactosidase enzyme fragment complementation method relative to zaprinast; design: concentration or dose not given beside the values
[21] = target: T6, G-protein coupled receptor 35; assay: Agonist activity at human GPR35 assessed as induction of beta-arrestin recruitment by beta-galactosidase enzyme fragment complementation method
[22] = target: T2, G-protein coupled receptor 55; assay: Allosteric antagonist activity against human GPR55 expressed in CHO cells assessed as induction of rightward shift of concentration response curve of LPI-induced beta-arrestin recruitment at 10 uM by beta-galactosidase enzyme fragment complementation method; format: cell-based
[23] = target: T2, G-protein coupled receptor 55; assay: Inverse agonist activity against human GPR55 expressed in CHO cells assessed as reduction in LPI-induced beta-arrestin recruitment at 10 uM by beta-galactosidase enzyme fragment complementation method; format: cell-based
[24] = target: T2, G-protein coupled receptor 55; assay: Inverse agonist activity against human GPR55 expressed in CHO cells assessed as reduction in LPI-induced beta-arrestin recruitment at 30 uM by beta-galactosidase enzyme fragment complementation method; format: cell-based
[25] = target: T2, G-protein coupled receptor 55; assay: Agonist activity at human GPR55 expressed in HEK293 cells assessed as increase in oscillation Ca2+ transients by fura-2 dye based fluorescence analysis; format: functional, cell-based
[26] = target: Cannabinoid receptor 1 (Rattus norvegicus) (UniProt P20272); assay: Intrinsic activity at CB1 receptor in rat brain cortical membranes assessed as stimulation of [35S]GTPgammaS binding at 10 uM by liquid scintillation counting method relative to CP55,940; format: functional, cell membranes
Cannabinoid receptor 1 [27] = target: T3, Cannabinoid receptor 1; assay: Intrinsic activity at human recombinant CB1 receptor expressed in HEK293 cell membranes assessed as stimulation of [35S]GTPgammaS binding at 10 uM by liquid scintillation counting method relative to CP55,940; format: functional
Cannabinoid receptor 2 [28] = target: T4, Cannabinoid receptor 2; assay: Intrinsic activity at human recombinant CB2 receptor expressed in HEK293 cell membranes assessed as stimulation of [35S]GTPgammaS binding at 10 uM by liquid scintillation counting method relative to CP55,940; format: functional
[29] = target: T1, N-arachidonyl glycine receptor; assay: Agonist activity at human GPR18 expressed in […] cells by MAP kinase assay; format: cell-based

T3 sequence (P21554 whole entry): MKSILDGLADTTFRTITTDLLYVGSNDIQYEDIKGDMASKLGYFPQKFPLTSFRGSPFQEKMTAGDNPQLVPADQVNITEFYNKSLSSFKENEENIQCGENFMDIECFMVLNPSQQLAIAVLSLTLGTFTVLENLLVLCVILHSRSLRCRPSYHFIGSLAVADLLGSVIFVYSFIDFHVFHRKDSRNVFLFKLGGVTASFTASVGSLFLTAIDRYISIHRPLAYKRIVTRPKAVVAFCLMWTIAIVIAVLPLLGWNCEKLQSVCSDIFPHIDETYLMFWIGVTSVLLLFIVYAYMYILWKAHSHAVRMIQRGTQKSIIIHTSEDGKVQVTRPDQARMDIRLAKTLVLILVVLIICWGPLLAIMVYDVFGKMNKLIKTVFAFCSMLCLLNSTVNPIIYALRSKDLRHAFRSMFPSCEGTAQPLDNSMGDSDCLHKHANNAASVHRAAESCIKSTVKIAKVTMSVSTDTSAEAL
Chain of Cannabinoid receptor 1 (Rattus norvegicus) (P20272 whole entry, the tested form may be a part): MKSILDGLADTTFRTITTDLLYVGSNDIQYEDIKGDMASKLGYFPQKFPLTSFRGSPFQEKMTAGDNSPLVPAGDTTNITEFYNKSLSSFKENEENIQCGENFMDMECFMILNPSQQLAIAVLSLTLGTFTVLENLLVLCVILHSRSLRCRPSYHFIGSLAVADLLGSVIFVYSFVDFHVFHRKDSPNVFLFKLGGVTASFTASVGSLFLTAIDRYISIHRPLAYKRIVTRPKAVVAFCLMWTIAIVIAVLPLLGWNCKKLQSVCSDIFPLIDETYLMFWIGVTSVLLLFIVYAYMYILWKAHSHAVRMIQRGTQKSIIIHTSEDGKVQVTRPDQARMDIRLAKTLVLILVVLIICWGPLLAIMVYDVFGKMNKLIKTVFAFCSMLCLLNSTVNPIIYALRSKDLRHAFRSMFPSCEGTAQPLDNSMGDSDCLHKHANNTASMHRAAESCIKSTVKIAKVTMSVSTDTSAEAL
Chain of Cannabinoid receptor 1 (Rattus norvegicus, UniProt P20272) (P20272 whole entry, the tested form may be a part): as above
T4 sequence (P34972 whole entry): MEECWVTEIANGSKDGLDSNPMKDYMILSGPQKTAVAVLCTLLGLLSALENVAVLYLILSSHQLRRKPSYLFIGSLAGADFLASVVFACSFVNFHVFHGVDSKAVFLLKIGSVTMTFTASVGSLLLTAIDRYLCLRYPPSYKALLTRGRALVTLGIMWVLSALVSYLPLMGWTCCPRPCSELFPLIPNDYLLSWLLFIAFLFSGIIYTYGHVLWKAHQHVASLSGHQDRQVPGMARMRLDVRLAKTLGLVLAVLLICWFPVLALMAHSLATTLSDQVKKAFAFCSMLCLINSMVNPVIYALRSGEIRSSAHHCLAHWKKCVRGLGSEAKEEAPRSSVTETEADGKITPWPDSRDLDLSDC
T6 sequence (Q9HC97 whole entry, the tested form may be a part): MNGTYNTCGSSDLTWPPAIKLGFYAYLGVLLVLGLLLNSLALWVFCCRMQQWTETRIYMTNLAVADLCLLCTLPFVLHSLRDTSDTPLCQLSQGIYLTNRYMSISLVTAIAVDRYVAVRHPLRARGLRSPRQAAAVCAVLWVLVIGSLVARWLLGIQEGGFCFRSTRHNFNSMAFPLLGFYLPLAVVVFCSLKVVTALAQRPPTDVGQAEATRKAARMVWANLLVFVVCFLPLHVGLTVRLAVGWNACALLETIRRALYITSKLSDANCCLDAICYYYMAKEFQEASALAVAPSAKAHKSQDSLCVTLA
T2 sequence (Q9Y2T6 whole entry, the tested form may be a part): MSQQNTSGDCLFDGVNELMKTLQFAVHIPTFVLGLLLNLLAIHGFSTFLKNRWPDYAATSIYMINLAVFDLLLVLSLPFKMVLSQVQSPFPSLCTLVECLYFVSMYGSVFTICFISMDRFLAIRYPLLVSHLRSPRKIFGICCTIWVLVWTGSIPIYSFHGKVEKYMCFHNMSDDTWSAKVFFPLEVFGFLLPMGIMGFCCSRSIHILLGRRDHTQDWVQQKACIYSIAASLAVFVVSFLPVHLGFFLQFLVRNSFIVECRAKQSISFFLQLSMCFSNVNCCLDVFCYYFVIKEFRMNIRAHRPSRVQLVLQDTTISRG

Structure (SMILES) | EC50 [2] [µM] | Activity [6] [%] | Ki (Cannabinoid receptor 1 [7]) [µM] | inhibition (Cannabinoid receptor 2 [8]) [%] | inhibition [9] [%] | inhibition (Cannabinoid receptor 1 [10]) [%] | Ki (Cannabinoid receptor 2 [11]) [µM] | Ki [12] [µM] | Activity [13] [%] | IC50 [14] [µM] | Ki (Cannabinoid receptor 1 [15]) [µM] | IC50 [16] [µM] | Allosteric antagonist activity [22] | also measured
Cc1c(C(=O)NN2CCCCC2)nn(-c2ccc(Cl)cc2Cl)c1-c1ccc(Cl)cc1 [RIMONABANT] | – | – | – | – | – | – | – | – | – | – | – | – | – | EC50 [1]: 10.1 µM
CCCCCCC(C)(C)c1ccc([C@@H]2C[C@H](O)CC[C@H]2CCCO)c(O)c1 [CP-55940] | 1.61 | – | – | – | – | – | – | – | – | – | – | – | – | Activity (Cannabinoid receptor 1 [3]): Active; Activity (Cannabinoid receptor 2 [4]): Active; EC50 [1]: 5.99 µM
O=C1/C(=C/c2cccc(Cl)c2)N=C2SCCCN12 | – | 0 | > 10 | 2 | 14 | 30 | > 10 | 10 | 9 | > 10 | > 10 | ≥ 10 | – | inhibition [5]: 6%; inhibition (Rattus norvegicus): 57%; inhibition [17]: 42%
O=C1/C(=C/c2cccc(F)c2F)N=C2SCCCN12 | – | 4 | > 10 | 0 | 3 | 7 | > 10 | > 10 | 0 | > 10 | – | 3.15 | Active | IC50 [18]: > 10 µM; inhibition [19]: 17%; Activity [20]: -4%; EC50 [21]: > 10 µM; inhibition [23]: Active; inhibition (Rattus norvegicus): 24%
O=C1/C(=C/c2ccccc2Cl)N=C2SCCCN12 | – | 20 | > 10 | 21 | 6 | 0 | > 10 | 4.15 | 27 | > 10 | > 10 | 5.09 | Active | IC50 [18]: ≥ 10 µM; inhibition [5]: 5%; inhibition [19]: 49%; Activity [20]: -22%; EC50 [21]: > 10 µM
CCCCC/C=C\C/C=C\C/C=C\C/C=C\CCCC(=O)O[C@H](CO)COP(=O)(O)O[C@@H]1[C@@H](O)[C@H](O)[C@@H](O)[C@H](O)[C@@H]1O | 1 | – | > 10 | 0 | 15 | 0 | > 10 | – | – | > 10 | – | – | – | –
O=C1/C(=C/c2ccc(F)cc2F)N=C2SCCCN12 | – | 11 | > 10 | 0 | 6 | 13 | > 10 | > 10 | 0 | > 10 | – | 3.46 | Active | inhibition [24]: Active; inhibition (Rattus norvegicus): 34%
Cc1c(C(=O)NN2CCOCC2)nn(-c2ccc(Cl)cc2Cl)c1-c1ccc(I)cc1 | – | – | – | – | – | – | – | – | – | – | – | – | – | EC50 [25]: 13.6 µM; Intrinsic activity [26]: -42%; Intrinsic activity (Cannabinoid receptor 1 [27]): -80%; Activity (Cannabinoid receptor 1 [3]): inactive; Activity (Cannabinoid receptor 2 [4]): inactive
O=C1/C(=C/c2cccc(OCc3ccc(Cl)cc3)c2)N=C2SCCCCN12 | 10.7 | 0 | 0.25 | – | 31 | – | 4.15 | > 10 | 70 | > 10 | 0.82 | – | – | IC50 [18]: > 10 µM; inhibition [19]: 1%; Activity [20]: 6%; EC50 [21]: > 10 µM; Intrinsic activity [26]: -15%; Intrinsic activity (Cannabinoid receptor 1 [27]): -40%; Activity (Cannabinoid receptor 1 [3]): inactive; Intrinsic activity (Cannabinoid receptor 2 [28]): -59%
CCCCCc1cc(O)c2c(c1)OC(C)(C)[C@@H]1CCC(C)=C[C@@H]21 [DRONABINOL] | 14.2 | – | – | – | – | – | – | – | – | – | – | – | – | EC50 [29]: 0.96 µM
Cc1c(C(=O)NN2CCCCC2)nn(-c2ccc(Cl)cc2Cl)c1-c1ccc(I)cc1 | – | – | – | – | – | – | – | – | – | – | – | – | – | EC50 [25]: 0.63 µM
O=C1/C(=C/c2cccc(Cl)c2Cl)N=C2SCCCN12 | – | 17 | > 10 | 40 | 0 | 12 | > 10 | – | 3 | > 10 | > 10 | 6.91 | Active | inhibition [5]: 6%
